From the NIST ThermoML archive (doi:10.1016/j.jct.2014.12.020)

Assay: wn = mass fraction of the nth substance listed
Conditions: 100 kPa, Liquid; for viscosity: Concentric cylinders viscometry; for mass density: Vibrating tube method

C[C@H](O)C(=O)[O-].C[N+](C)(C)CCO + O
Conditions | mass density [kg/m3] | viscosity [mPa·s]
293.15 K, w2 = 0.004 | 1140.9 | 3661.3
293.15 K, w2 = 0.011 | 1142 | 2703
293.15 K, w2 = 0.02 | 1142.3 | 1543.3
293.15 K, w2 = 0.029 | 1141.9 | 1408.3
293.15 K, w2 = 0.045 | 1140.9 | 888
293.15 K, w2 = 0.066 | 1139.9 | 546.3
293.15 K, w2 = 0.077 | 1139.3 | 421.4
293.15 K, w2 = 0.121 | 1137 | 201.3
293.15 K, w2 = 0.167 | 1135.4 | 119.8
293.15 K, w2 = 0.218 | 1131.4 | 70.5
293.15 K, w2 = 0.24 | 1127.4 | 48
298.15 K, w2 = 0.004 | 1137.8 | 2310.1
298.15 K, w2 = 0.011 | 1138.8 | 1732.1
298.15 K, w2 = 0.02 | 1139 | 1021
298.15 K, w2 = 0.029 | 1138.5 | 936.5
298.15 K, w2 = 0.045 | 1137.5 | 604.3
298.15 K, w2 = 0.066 | 1136.5 | 380.6
298.15 K, w2 = 0.077 | 1136 | 297.1
298.15 K, w2 = 0.121 | 1133.7 | 146.7
298.15 K, w2 = 0.167 | 1132.1 | 89.1
298.15 K, w2 = 0.218 | 1128.1 | 53.6
298.15 K, w2 = 0.24 | 1124.1 | 37.1
303.15 K, w2 = 0.004 | 1134.7 | 1510.1
303.15 K, w2 = 0.011 | 1135.6 | 1150.1
303.15 K, w2 = 0.02 | 1135.7 | 697.5
303.15 K, w2 = 0.029 | 1135.2 | 642.3
303.15 K, w2 = 0.045 | 1134.2 | 423.6
303.15 K, w2 = 0.066 | 1133.3 | 272.7
303.15 K, w2 = 0.077 | 1132.7 | 215.2
303.15 K, w2 = 0.121 | 1130.5 | 109.4
303.15 K, w2 = 0.167 | 1128.9 | 67.8
303.15 K, w2 = 0.218 | 1124.8 | 41.6
303.15 K, w2 = 0.24 | 1120.8 | 29.2
308.15 K, w2 = 0.004 | 1131.7 | 1019.4
308.15 K, w2 = 0.011 | 1132.4 | 787.6
308.15 K, w2 = 0.02 | 1132.4 | 490.6
308.15 K, w2 = 0.029 | 1131.8 | 453.5
308.15 K, w2 = 0.045 | 1130.9 | 305
308.15 K, w2 = 0.066 | 1130.1 | 200.4
308.15 K, w2 = 0.077 | 1129.6 | 159.8
308.15 K, w2 = 0.121 | 1127.3 | 83.5
308.15 K, w2 = 0.167 | 1125.8 | 52.6
308.15 K, w2 = 0.218 | 1121.6 | 32.9
308.15 K, w2 = 0.24 | 1117.6 | 23.4
313.15 K, w2 = 0.004 | 1128.6 | 708.4
313.15 K, w2 = 0.011 | 1129.1 | 554.7
313.15 K, w2 = 0.02 | 1129.2 | 354.1
313.15 K, w2 = 0.029 | 1128.6 | 328.4
313.15 K, w2 = 0.045 | 1127.8 | 225
313.15 K, w2 = 0.066 | 1126.9 | 150.7
313.15 K, w2 = 0.077 | 1126.4 | 121.4
313.15 K, w2 = 0.121 | 1124.2 | 65
313.15 K, w2 = 0.167 | 1122.6 | 41.7
313.15 K, w2 = 0.218 | 1118.5 | 26.4
313.15 K, w2 = 0.24 | 1114.5 | 18.9
318.15 K, w2 = 0.004 | 1125.4 | 505.4
318.15 K, w2 = 0.011 | 1125.9 | 400.7
318.15 K, w2 = 0.02 | 1126.1 | 261.6
318.15 K, w2 = 0.029 | 1125.5 | 243.5
318.15 K, w2 = 0.045 | 1124.7 | 169.7
318.15 K, w2 = 0.066 | 1123.8 | 115.6
318.15 K, w2 = 0.077 | 1123.3 | 94
318.15 K, w2 = 0.121 | 1121 | 51.5
318.15 K, w2 = 0.167 | 1119.5 | 33.6
318.15 K, w2 = 0.218 | 1115.2 | 21.6
318.15 K, w2 = 0.24 | 1111.2 | 15.8
323.15 K, w2 = 0.004 | 1122.3 | 369.4
323.15 K, w2 = 0.011 | 1122.7 | 296.2
323.15 K, w2 = 0.02 | 1123 | 197.4
323.15 K, w2 = 0.029 | 1122.4 | 184.4
323.15 K, w2 = 0.045 | 1121.6 | 130.6
323.15 K, w2 = 0.066 | 1120.8 | 90.4
323.15 K, w2 = 0.077 | 1120.2 | 74.1
323.15 K, w2 = 0.121 | 1118 | 41.5
323.15 K, w2 = 0.167 | 1116.3 | 27.4
323.15 K, w2 = 0.218 | 1112 | 17.9
323.15 K, w2 = 0.24 | 1108 | 13.2
328.15 K, w2 = 0.004 | 1119.2 | 275.9
328.15 K, w2 = 0.011 | 1119.8 | 223.5
328.15 K, w2 = 0.02 | 1120.1 | 151.8
328.15 K, w2 = 0.029 | 1119.4 | 142.3
328.15 K, w2 = 0.045 | 1118.6 | 102.3
328.15 K, w2 = 0.066 | 1117.7 | 71.9
328.15 K, w2 = 0.077 | 1117.1 | 59.3
328.15 K, w2 = 0.121 | 1114.9 | 33.9
328.15 K, w2 = 0.167 | 1113.2 | 22.7
328.15 K, w2 = 0.218 | 1108.8 | 15
328.15 K, w2 = 0.24 | 1104.8 | 11.2
333.15 K, w2 = 0.004 | 1116.3 | 210.2
333.15 K, w2 = 0.011 | 1116.8 | 171.9
333.15 K, w2 = 0.02 | 1117.1 | 118.9
333.15 K, w2 = 0.029 | 1116.5 | 111.7
333.15 K, w2 = 0.045 | 1115.6 | 81.4
333.15 K, w2 = 0.066 | 1114.7 | 58
333.15 K, w2 = 0.077 | 1114.1 | 48.2
333.15 K, w2 = 0.121 | 1111.8 | 28.1
333.15 K, w2 = 0.167 | 1110 | 19
333.15 K, w2 = 0.218 | 1105.6 | 12.7
333.15 K, w2 = 0.24 | 1101.5 | 9.5
338.15 K, w2 = 0.004 | 1113.3 | 163.1
338.15 K, w2 = 0.011 | 1114 | 134.6
338.15 K, w2 = 0.02 | 1114.2 | 94.6
338.15 K, w2 = 0.029 | 1113.6 | 89
338.15 K, w2 = 0.045 | 1112.6 | 65.8
338.15 K, w2 = 0.066 | 1111.8 | 47.5
338.15 K, w2 = 0.077 | 1111.2 | 39.7
338.15 K, w2 = 0.121 | 1108.6 | 23.5
338.15 K, w2 = 0.167 | 1106.8 | 16.1
338.15 K, w2 = 0.218 | 1102.4 | 11
338.15 K, w2 = 0.24 | 1098.3 | 8.3
343.15 K, w2 = 0.004 | 1110.2 | 128.7
343.15 K, w2 = 0.011 | 1111 | 106.9
343.15 K, w2 = 0.02 | 1111.3 | 76.3
343.15 K, w2 = 0.029 | 1110.7 | 72
343.15 K, w2 = 0.045 | 1109.8 | 53.8
343.15 K, w2 = 0.066 | 1108.8 | 39.3
343.15 K, w2 = 0.077 | 1108.1 | 33.1
343.15 K, w2 = 0.121 | 1105.5 | 19.9
343.15 K, w2 = 0.167 | 1103.7 | 13.8
343.15 K, w2 = 0.218 | 1099.2 | 9.5
343.15 K, w2 = 0.24 | 1095 | 7.3
